Data as given in the supplement of paper PMC10307832.

What was measured:
Assay in all cases: relative viability (nuclei count vs DMSO), 5 days (fraction); higher = more cells survive
AZD8055 + Vorinostat = compound: COc1ccc(-c2ccc3c(N4CCOC[C@@H]4C)nc(N4CCOC[C@@H]4C)nc3n2)cc1CO [AZD8055] + O=C(CCCCCCC(=O)Nc1ccccc1)NO [Vorinostat] (partner 1 µM)
In short: (§1)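 Lung cancer cell lines were pin-tool dosed in 1536-well plates on the day after seeding, with either a lone drug or a fixed anchor-drug dose plus five library-drug doses (not always all listed) in √10 steps. Nuclei were counted on 4× images after 5 days. Relative viability is the ratio of treated-well to vehicle-well nuclei counts, with each value a median of duplicate plates.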

AZD8055 + Palbociclib = compound: COc1ccc(-c2ccc3c(N4CCOC[C@@H]4C)nc(N4CCOC[C@@H]4C)nc3n2)cc1CO [AZD8055] + CC(=O)c1c(C)c2cnc(Nc3ccc(N4CCNCC4)cn3)nc2n(C2CCCC2)c1=O [Palbociclib] (partner 0.5 µM)
In short: as §1

AZD8055 + Dasatinib = compound: COc1ccc(-c2ccc3c(N4CCOC[C@@H]4C)nc(N4CCOC[C@@H]4C)nc3n2)cc1CO [AZD8055] + Cc1nc(Nc2ncc(C(=O)Nc3c(C)cccc3Cl)s2)cc(N2CCN(CCO)CC2)n1 [Dasatinib] (partner 0.075 µM)
In short: as §1

AZD8055 + Pemetrexed = compound: COc1ccc(-c2ccc3c(N4CCOC[C@@H]4C)nc(N4CCOC[C@@H]4C)nc3n2)cc1CO [AZD8055] + Nc1nc2[nH]cc(CCc3ccc(C(=O)N[C@@H](CCC(=O)O)C(=O)O)cc3)c2c(=O)[nH]1 [Pemetrexed] (partner 0.2 µM)
In short: as §1

Cell Line	relative viability (AZD8055 + Vorinostat; first compound 0.01 µM)	relative viability (AZD8055 + Vorinostat; first compound 0.03162 µM)	relative viability (AZD8055 + Vorinostat; first compound 0.1 µM)	relative viability (AZD8055 + Vorinostat; first compound 0.3162 µM)	relative viability (AZD8055 + Vorinostat; first compound 1 µM)	relative viability (AZD8055 + Palbociclib; first compound 0.01 µM)	relative viability (AZD8055 + Palbociclib; first compound 0.03162 µM)	relative viability (AZD8055 + Palbociclib; first compound 0.1 µM)	relative viability (AZD8055 + Palbociclib; first compound 0.3162 µM)	relative viability (AZD8055 + Palbociclib; first compound 1 µM)	relative viability (AZD8055 + Dasatinib; first compound 0.01 µM)	relative viability (AZD8055 + Dasatinib; first compound 0.03162 µM)	relative viability (AZD8055 + Dasatinib; first compound 0.1 µM)	relative viability (AZD8055 + Dasatinib; first compound 0.3162 µM)	relative viability (AZD8055 + Dasatinib; first compound 1 µM)	relative viability (AZD8055 + Pemetrexed; first compound 0.01 µM)	relative viability (AZD8055 + Pemetrexed; first compound 0.03162 µM)	relative viability (AZD8055 + Pemetrexed; first compound 0.1 µM)	relative viability (AZD8055 + Pemetrexed; first compound 0.3162 µM)	relative viability (AZD8055 + Pemetrexed; first compound 1 µM)
201T	0.974	0.943	0.824	0.679	0.575	0.354	0.314	0.278	0.251	0.303	0.537	0.564	0.501	0.398	0.416	0.312	0.317	0.359	0.293	0.293
A-427	0.928	0.868	0.849	0.6	0.535	0.516	0.553	0.467	0.392	0.409	0.666	0.632	0.572	0.281	0.339	1.04	0.895	0.835	0.555	0.587
ABC-1	1.07	1.15	1.12	0.466	0.533	0.915	0.54	0.483	0.503	0.47	0.692	0.548	0.526	0.219	0.3					
BEN	0.614	0.443	0.442	0.327	0.297	0.485	0.472	0.436	0.475	0.413	0.273	0.246	0.205	0.237	0.171	0.815	0.589	0.514	0.421	0.449
CAL-12T	0.954	0.631	0.598	0.276	0.217	0.353	0.399	0.171	0.163	0.191	0.536	0.388	0.34	0.136	0.12	1.02	0.891	0.918	0.424	0.296
COR-L23	0.505	0.395	0.326	0.169	0.177	0.319	0.226	0.199	0.126	0.124	0.581	0.44	0.309	0.137	0.164	0.204	0.194	0.186	0.177	0.178
COR-L 105	0.865	0.766	0.805	0.516	0.421	0.426	0.388	0.374	0.403	0.381	0.359	0.281	0.23	0.2	0.226	1.3	1.16	1.29	0.664	0.485
ChaGo-K-1	0.769	0.673	0.741	0.631	0.541	1.01	0.87	0.864	0.728	0.652	0.614	0.537	0.433	0.375	0.352	0.26	0.262	0.256	0.251	0.271
EKVX	0.68	0.729	0.519	0.422	0.366	0.466	0.365	0.278	0.211	0.173	0.443	0.615	0.419	0.317	0.263	0.476	0.436	0.389	0.322	0.289
EMC-BAC-2	0.445	0.342	0.303	0.263	0.287	0.477	0.437	0.376	0.31	0.29	0.32	0.25	0.234	0.186	0.186	0.501	0.465	0.474	0.396	0.316
EPLC-272H	0.331	0.401	0.343	0.144	0.261	0.319	0.303	0.309	0.27	0.219	0.333	0.221	0.173	0.109	0.128	0.361	0.363	0.369	0.321	0.331
H3255	0.967	0.746	0.747	0.513	0.357	0.3	0.303	0.314	0.288	0.292	0.364	0.429	0.3	0.323	0.306	0.636	0.562	0.487	0.443	0.364
HARA	0.574	0.527	0.441	0.24	0.227	0.223	0.234	0.216	0.255	0.171	0.282	0.294	0.221	0.155	0.221		0.214	0.281	0.259	0.192
HCC-15	0.833	0.844	0.762	0.468	0.333	0.858	0.687	0.667	0.369	0.275	0.615	0.541	0.477	0.273	0.174	0.241	0.236	0.209	0.238	0.241
HCC-44	1.12	1.22	1.07	0.735	0.803	0.949	0.936	0.949	0.925	0.867						0.65	0.702	0.665	0.655	0.673
HCC-78	0.428	0.394	0.38	0.398	0.321	0.492	0.529	0.379	0.437	0.463	0.328	0.306	0.222	0.233	0.247	0.967	0.865	0.855	0.88	0.896
HCC-366	0.372	0.205	0.182	0.0725	0.0602	0.311	0.199	0.0939	0.0508	0.0399	0.719	0.401	0.241	0.0939	0.0948	0.256	0.285	0.248	0.161	0.109
HCC-827	0.849	0.882	0.89	0.521	0.397	0.482	0.406	0.381	0.227	0.181	0.334	0.273	0.258	0.241	0.167	0.278	0.242	0.239	0.275	0.216

Cell Line	relative viability (AZD8055 + Vorinostat; first compound 0.01 µM)	relative viability (AZD8055 + Vorinostat; first compound 0.03162 µM)	relative viability (AZD8055 + Vorinostat; first compound 0.1 µM)	relative viability (AZD8055 + Vorinostat; first compound 0.3162 µM)	relative viability (AZD8055 + Vorinostat; first compound 1 µM)	relative viability (AZD8055 + Palbociclib; first compound 0.01 µM)	relative viability (AZD8055 + Palbociclib; first compound 0.03162 µM)	relative viability (AZD8055 + Palbociclib; first compound 0.1 µM)	relative viability (AZD8055 + Palbociclib; first compound 0.3162 µM)	relative viability (AZD8055 + Palbociclib; first compound 1 µM)	relative viability (AZD8055 + Dasatinib; first compound 0.01 µM)	relative viability (AZD8055 + Dasatinib; first compound 0.03162 µM)	relative viability (AZD8055 + Dasatinib; first compound 0.1 µM)	relative viability (AZD8055 + Dasatinib; first compound 0.3162 µM)	relative viability (AZD8055 + Dasatinib; first compound 1 µM)	relative viability (AZD8055 + Pemetrexed; first compound 0.01 µM)	relative viability (AZD8055 + Pemetrexed; first compound 0.03162 µM)	relative viability (AZD8055 + Pemetrexed; first compound 0.1 µM)	relative viability (AZD8055 + Pemetrexed; first compound 0.3162 µM)	relative viability (AZD8055 + Pemetrexed; first compound 1 µM)
HOP-62	0.636	0.413	0.587	0.298	0.183	0.428	0.441	0.414	0.171	0.172	0.741	0.554	0.556	0.272	0.171	0.312	0.29	0.338	0.35	0.242
IA-LM	0.814	0.758	0.524	0.172	0.127															
LC-2-ad	0.773	0.688	0.705	0.497	0.457	0.534	0.471	0.438	0.388	0.312	0.559	0.683	0.451	0.221	0.321	0.281	0.277	0.307	0.289	0.278
LCLC-97TM1	0.751	0.585	0.414	0.354	0.308	0.205	0.164	0.129	0.0928	0.0897	0.873	0.748	0.761	0.393	0.445	0.18	0.158	0.168	0.168	0.132
LCLC-103H	0.825	0.765	0.619	0.445	0.437	0.52	0.48	0.398	0.468	0.421	0.412	0.315	0.379	0.2	0.211	0.499	0.438	0.54	0.49	0.392
LK-2	0.3	0.172	0.271	0.167	0.157	0.387	0.399	0.347	0.17	0.102	0.215	0.188	0.175	0.185	0.185	0.234	0.185	0.138	0.137	0.11
LOU-NH91	0.872	0.95	0.63	0.596	0.57	0.531	0.536	0.589	0.552	0.497	0.545	0.6	0.415	0.431	0.406	0.466	0.433	0.5	0.507	0.469
LU99A	0.385	0.259	0.225	0.186	0.153	0.312	0.285	0.167	0.198	0.2	0.432	0.324	0.314	0.173	0.268	0.227	0.211	0.235	0.177	0.169
LXF-289	0.745	0.754	0.709	0.523	0.515	0.621	0.581	0.578	0.3	0.23	0.191	0.222	0.192	0.118	0.109	1.11	0.996	0.935	0.765	0.651
NCI-H23	0.44	0.457	0.449	0.235	0.251	0.439	0.367	0.295	0.193	0.187	0.874	0.732	0.572	0.276	0.27	0.503	0.635	0.542	0.326	0.354
NCI-H322M	0.85	0.839	0.8	0.511	0.538	0.457	0.492	0.383	0.468	0.41	0.259	0.265	0.251	0.246	0.249	0.655	0.689	0.622	0.609	0.483
NCI-H358	0.775	0.701	0.624	0.207	0.121	0.143	0.137	0.135	0.115	0.101	0.169	0.173	0.0957	0.0735	0.0998	0.184	0.176	0.158	0.145	0.129
NCI-H596	0.565	0.567	0.441	0.455	0.428						0.594	0.516	0.468	0.286	0.301	0.452	0.456	0.409	0.402	0.443
NCI-H727	1.3	1.12	1.18	0.869	0.778	0.621	0.635	0.572	0.573	0.51	0.444	0.464	0.41	0.28	0.312					
NCI-H1563											0.458	0.458	0.443	0.405	0.384	0.735	0.577	0.602	0.563	0.471
NCI-H1648	0.501	0.451	0.293	0.287	0.273	0.251	0.332	0.201	0.235	0.241						0.942	0.675	0.641	0.324	0.285
NCI-H1792						0.677	0.585	0.417	0.359	0.307	0.844	0.667	0.583	0.321	0.237	0.764	0.343	0.193	0.108	0.108
